Consider 1 compound from patent US12161723B2, “Water-based cannabinoid and opioid compositions” (DAY THREE LABS MAN[…]., priority 2014, dated 2024).

SMILES strings stand for the structures.

The target in data set [1] is T1, bovine serum albumin (BSA) (Bos taurus, UniProt P02769).
T1 construct: purchased Millipore, USA
The experiment in a line: Cannabis smoke bubbled through aqueous BSA solution, cannabinoids determined by HPLC (Example 1a). The following applies: BSA in Hartmann's solution; FIG. 2A. The data set is classed as binding. The method, then: Protein-bound cannabinoid was formed according to the following method. An aqueous albumin solution was prepared by adding 20 (mg)) of bovine serum albumin (BSA, from Millipore, USA) to 10 milliliters (ml) ml Hartmann's solution (B. Braun Melsungen AG, Germany). BSA was completely dissolved using a shaker (Heidolph POLYMAX 1040) at 50 revolutions per minute.
A cannabis-filled cigarette was formed using a cigarette paper containing 0.8 gr ground cannabis (provided by “Seach” Israel), from flowers and budding leaves. A Pasteur pipette was cut longitudinally at its wide end, and the cigarette was lodged in to the cut end. The narrow end of the pipette was attached to a syringe. The cigarette was lit in a fume hood, and cigarette smoke was collected in the syringe by pulling the syringe plunger. The smoke was then slowly released into the BSA solution by depressing the plunger. Approximately 350 ml of smoke-containing air was gently bubbled through the BSA solution.
As a control, a solution of 10 ml of Hartmann's solution was prepared without the addition of BSA and a similar procedure of cannabis smoke formation and bubbling was performed.
Samples having a volume of 3 ml of the BSA solution and the control solution were each inserted in to HPLC glass vials and the open vials were inserted into a vacuum oven for 24 hours at 37° Celsius.
The solid phase after the evaporation was crushed in to a fine powder using mortar and pestle. The powder was extracted using Methanol chloroform 9:1 extract solution, sonicated for 30 minutes, and was then filtered and added in to an HPLC testing tube.
HPLC was performed using an HP1050 AGILENT, DAD detector, XBridge C18 3.5 μm 4.6×150 mm column, and according to the following parameters: […]

Data set [2] addresses T2, BSA (Bos taurus, UniProt P02769). The experiment in a line: THC standard adsorption to BSA at varying ethanol content (Example 1c). The data set is classed as binding, bovine. Conditions: 10 micrograms BSA, 30 micrograms THC, 1.5-15 microliters ethanol; FIG. 5. The method, then: 30 micrograms of THC standard was dissolved in various amounts of ethanol (absolute) in various amounts, between 1.5 microliters and 15 microliters. The THC solution was then combined with 0.5 ml of a 20 microgram/ml solution of BSA. […] The results can be seen in FIG. 5.

Data set [3] deals with T2, BSA. The experiment in a line: Cannabis smoke/vapor passed through BSA/water/ethanol solution, cannabinoid profile (Example 1d). The data set is classed as binding, bovine. The following applies: 33% ethanol, 48 hours incubation, washed.
Data set [4] is described as follows: Cannabis smoke/vapor passed through pure ethanol, cannabinoid profile (Example 1d). Conditions: for relative concentration of cannabinoids (relative to total cannabinoid content), Vapor passed through ethanol: vapor at 210° C. The data set is classed as physicochemical.
Data set [5] concerns the target T2, BSA. The data set can be described thus: Adsorption capacity of BSA using THC standard (Example 1e). The data set is classed as binding, bovine. Conditions: albumin 20 μg/ml in water and ethanol; THC 20-60 μg/ml; incubation two hours or 12 hours; FIG. 4. The method, then: An albumin solution in water (20 μg/ml) and ethanol was prepared. THC standard was added at concentrations of between 20 μg/ml and 60 μg/ml. The amount of THC adsorbed to the BSA protein was determined for each concentration after incubation for either two hours or 12 hours while gently vortexing.

The test system of data set [6] is bovine γ-globulin. The experiment in a line: Cannabis vapor streamed through protein solution, cannabinoids adsorbed (Example 1f). The data set is classed as binding. Conditions: vapor of cannabis high in CBD; 1 mg/ml protein, ethanol:water 1:2, 30° C., 24 hours. The procedure: (§1) The protein solutions were formed using ethanol and water in a 1:2 ratio. The solutions were incubated at 30° C. for 24 hours.

The target in data set [7] is T3, ovalbumin (hen) (Gallus gallus, UniProt P01012).
T3 sequence (P01012 1-386): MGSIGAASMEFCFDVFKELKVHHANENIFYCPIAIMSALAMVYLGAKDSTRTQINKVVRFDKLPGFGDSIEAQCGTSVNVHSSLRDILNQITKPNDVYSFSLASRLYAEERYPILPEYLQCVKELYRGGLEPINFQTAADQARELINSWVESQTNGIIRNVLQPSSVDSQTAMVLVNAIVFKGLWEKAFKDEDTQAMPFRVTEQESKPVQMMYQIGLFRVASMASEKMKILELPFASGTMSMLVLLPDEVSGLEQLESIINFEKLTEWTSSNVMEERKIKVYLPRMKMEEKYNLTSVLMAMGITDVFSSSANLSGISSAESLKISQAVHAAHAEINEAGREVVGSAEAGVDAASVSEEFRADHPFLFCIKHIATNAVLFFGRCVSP
Described as above. Conditions: vapor of cannabis high in CBD; 1 mg/ml protein, ethanol:water 1:2, 30° C., 24 hours. The data set is classed as binding. The method, then: as §1

In data set [8] the target is T4, rice recombinant human serum albumin (HSA) (Homo sapiens, UniProt P02768).
T4 construct: host or cells: rice (recombinant expression host)
The data set is described as above. The data set is classed as binding. Conditions: vapor of cannabis high in CBD; 1 mg/ml protein, ethanol:water 1:2, 30° C., 24 hours. The procedure:
as §1

Data set [9] in a line: Cannabinoid content of cannabis extract (Example 2a). The data set is classed as physicochemical. The following applies: methanol/chloroform 9:1 cannabis extract.
The target of data set [10] is T2, BSA. The data set can be described thus: Cannabis extract combined with albumin solution, cannabinoids adsorbed to BSA (Example 2a). The data set is classed as binding, bovine. The following applies: albumin solution 10 mg/ml (BSA) with 20% ethanol, 2 hours at room temperature.
For data set [11], the target named is albumin (BSA) (Bos taurus, UniProt P02769). The experiment in a line: Ethanolic cannabinoid solution mixed with aqueous albumin, protein-bound cannabinoid quantified (Example 2b). More on the design: protein-bound cannabinoid quantified, Vapor: unit not given beside the values. The data set is classed as binding, bovine. The following applies: 100 microliters ethanolic solution + 500 microliters 5 mg/ml BSA, 30° C., 12 hours, non-adsorbed cannabinoids separated.

The conditions of data set [12]: 3 g high THC strain; 200 ml ethanol concentrated to about 3 ml.
Where [13] appears, read: strain of cannabis high in CBD and THC.

T2 sequence (P02769 25-607): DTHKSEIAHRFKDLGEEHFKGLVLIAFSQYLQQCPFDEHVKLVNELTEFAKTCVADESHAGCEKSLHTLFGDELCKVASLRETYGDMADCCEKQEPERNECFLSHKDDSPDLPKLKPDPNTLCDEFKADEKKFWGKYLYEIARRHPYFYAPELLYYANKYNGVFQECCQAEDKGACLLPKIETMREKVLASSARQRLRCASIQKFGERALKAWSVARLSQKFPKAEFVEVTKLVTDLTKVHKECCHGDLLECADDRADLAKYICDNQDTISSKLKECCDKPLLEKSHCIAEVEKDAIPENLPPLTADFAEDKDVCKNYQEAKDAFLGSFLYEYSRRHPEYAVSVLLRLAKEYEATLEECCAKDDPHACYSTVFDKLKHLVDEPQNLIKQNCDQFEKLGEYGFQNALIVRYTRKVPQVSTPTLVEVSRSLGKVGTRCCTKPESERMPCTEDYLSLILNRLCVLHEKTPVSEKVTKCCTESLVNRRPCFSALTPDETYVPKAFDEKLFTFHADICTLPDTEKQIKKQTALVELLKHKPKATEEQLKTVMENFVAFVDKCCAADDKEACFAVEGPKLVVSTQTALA
Chain of albumin (BSA) (P02769 25-607): as above
T4 sequence (P02768 25-609): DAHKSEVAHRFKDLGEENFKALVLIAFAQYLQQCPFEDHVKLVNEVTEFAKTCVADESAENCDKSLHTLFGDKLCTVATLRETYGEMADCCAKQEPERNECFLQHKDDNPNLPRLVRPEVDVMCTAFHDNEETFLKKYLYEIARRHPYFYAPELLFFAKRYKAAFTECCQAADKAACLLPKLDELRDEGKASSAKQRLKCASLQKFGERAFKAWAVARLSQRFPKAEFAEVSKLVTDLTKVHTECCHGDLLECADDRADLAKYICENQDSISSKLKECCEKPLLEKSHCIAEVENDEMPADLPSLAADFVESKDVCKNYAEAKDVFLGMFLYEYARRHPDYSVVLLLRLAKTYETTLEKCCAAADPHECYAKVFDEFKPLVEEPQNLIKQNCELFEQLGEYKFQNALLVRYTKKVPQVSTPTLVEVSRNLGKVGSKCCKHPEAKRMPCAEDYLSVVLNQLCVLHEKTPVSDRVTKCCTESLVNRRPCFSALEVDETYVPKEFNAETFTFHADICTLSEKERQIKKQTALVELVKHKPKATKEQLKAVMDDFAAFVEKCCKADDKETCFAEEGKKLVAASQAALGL
T1 sequence (P02769 25-607): as the sequence (P02769 25-607) above

Consider `CCCCCc1cc(O)c2c(c1)OC(C)(C)[C@@H]1CCC(C)=C[C@@H]21` [THC, tetrahydrocannabinol, reference compound], for which, in [1], the “active cannabinoids found by HPLC in BSA aqueous solution after cannabis smoke was introduced” value is on record as “dissolved in the solution”. In data set [2], the “adsorption of THC to protein as ethanol concentration increases” value is reported as “adsorption of THC to protein increases”. Also, in data set [3] (setting [13]), the “relative concentration of cannabinoids (relative to total cannabinoid content), Smoke passed through BSA/water/ethanol” value is 32.8 percent (weight/weight) and the “relative concentration of cannabinoids (relative to total cannabinoid content), Vapor passed through BSA/water/ethanol” value is listed as 37.7 percent (weight/weight). Moreover, the “relative concentration of cannabinoids (relative to total cannabinoid content), Smoke passed through BSA/water/ethanol” value in [3] (strain of cannabis high in THC) is reported as 69.7 percent (weight/weight). In data set [4] (setting [13]), the “relative concentration of cannabinoids (relative to total cannabinoid content), Smoke passed through ethanol” value is reported as 40.7 percent (weight/weight) and the “relative concentration of cannabinoids (relative to total cannabinoid content), Vapor passed through ethanol” value was 40.9 percent (weight/weight). For the same compound, in data set [4] (strain of cannabis high in THC), the “relative concentration of cannabinoids (relative to total cannabinoid content), Smoke passed through ethanol” value is listed as 86.7 percent (weight/weight) and the “relative concentration of cannabinoids (relative to total cannabinoid content), Vapor passed through ethanol” value was 94.6 percent (weight/weight). Also, in data set [5], the “adsorbed THC per mg of albumin” value is on record as “above 50 μg adsorbed THC per mg of albumin”. Besides, the “percentage of each cannabinoid relative to total cannabinoids adsorbed to protein, Bovine γ-globulin” value in data set [6] was 0 percentage. Also, the “percentage of each cannabinoid relative to total cannabinoids adsorbed to protein, Ovalbumin” value in data set [7] is 41.7 percentage. Also, in data set [8], the “percentage of each cannabinoid relative to total cannabinoids adsorbed to protein, Rice recombinant HSA” value was 21 percentage. Moreover, the “percentage of each cannabinoid relative to total cannabinoids, Extract” value in data set [9] came out at 68 percentage. Besides, the “percentage of each cannabinoid relative to total cannabinoids adsorbed to protein, Adsorbed to BSA after extract combined with BSA solution” value in [10] was found to be 63 percentage. In data set [11], the “protein-bound cannabinoid quantified, Smoke” value is 121.38 and the “protein-bound cannabinoid quantified, Vapor” value stood at 131.955. Besides, in [12], the “amount of cannabinoids dissolved in ethanol, Smoke” value is on record as 6195.223 micrograms/ml and the “amount of cannabinoids dissolved in ethanol, Vapor” value turned out to be 3777.7796 micrograms/ml.
